Assay results published in patent EP0979818A1, “BENZOIC ACID COMPOUNDS AND MEDICINAL USE THEREOF” (YOSHITOMI PHARMACEUTICAL INDUSTRIES, LTD., priority 1997, dated 1998).
Read-outs that look alike come from different tables or passages of the source.

Tests used:
[1] = target: isolated guinea pig ascending colon (Cavia porcellus, UniProt O70528); assay: contraction of the isolated guinea pig ascending colon; format: cell-based
Protocol: Male Hartley guinea pig was killed by a blow, ascending colon was taken from it and longitudinal muscle was separated. About 3 cm longitudinal muscle segment was suspended in 10 ml of a Tyrode solution with the load of 1 g. Tyrode solution contained methysergide (1 µM) and granisetron (1 µM) to inhibit responses mediated by 5-HT1, 5-HT2 and 5-HT3 receptors. Tyrode solution was maintained at 37°C and ventilated with a mixed gas of O2 (95%) and CO2 (5%). The contraction was isotonically measured via isotonic transducer. After an equilibrium period of about 30 minutes, the contraction by methacholine (30 µM) was measured two times at 15 minute intervals. Twenty minutes later, Y-36912 was added into the bath and the contraction was measured in the presence of a solvent or 1-methyl-1H-indole-3-carboxylic acid · 1-(2-methylsulfonylaminoethyl)-pyperidin-4-ylmethyl ester (hereinafter to be referred to as GR113808, 10nM), which is 5-HT4 receptor antagonist. The time of pretreatment with the solvent or GR113808 was 10 minutes. To avoid tachyphylaxis, the contraction induced by one concentration per preparation was measured. The contraction in the presence of a solvent or GR113803 was measured using a preparation from the same animal. The contraction effect of Y-36912 was measured as a percentage of responses to the second contraction by methacholine. […]

5-HT4 receptor = target: T1, 5-HT4 receptor (Cavia porcellus, UniProt O70528); assay: 5-HT4 receptor binding test; conditions: guinea pig striatum crude synapse membrane, [3H]GR113808 0.1 nM, 37°C; read-out: Affinity for receptor (Ki value, nM) 5-HT4
T1 construct: Crude synapse membrane sample was prepared from guinea pig striatum; from tissue; host or cells: guinea pig striatum, crude synaptic membranes
Protocol: According to the method of C.J. Grossman et al. [British Journal of Pharmacology, vol. 109, pp. 618-624 (1993)1, a 5-HT4 receptor binding test was run using, as a tracer ligand, 1-methyl-1H-indole-3-carboxylic acid · 1-(2-methylsulfonylaminoethyl)-piperidin-4-ylmethyl ester substituted by tritium (hereinafter to be referred to as [^3H]GR113808). Crude synapse membrane sample was prepared from guinea pig striatum, suspended in 50 mM HEPES buffer (pH 7.4) and used for testing. Y-36912 having several different concentrations and [^3H]GR113808 (final concentration 0.1 nM) were added to this suspension and allowed to react at 37°C. Thirty minutes later, the reaction mixture was filtered by suction with cell harvester. The filter was washed with 50 mM HEPES buffer, and the radioactivity on the filter was counted by liquid scintillation counter. The non-specific binding was determined in the presence of 1µM GR113808. The concentration of Y-36912 necessary for 50% inhibition (IC50) was determined from graph and convened to binding inhibition constant (Ki value).

5-HT3 receptor = target: T2, 5-HT3 receptor (Rattus norvegicus, UniProt P35563); assay: 5-HT3 receptor binding test; conditions: rat cerebral cortex crude synapse membrane, [3H]granisetron 1.0 nM, 25°C; value marked * is IC50, not Ki; read-out: Affinity for receptor 5-HT3 (* shows IC50)
T2 construct: Crude synapse membrane sample was prepared from rat cerebral cortex; from tissue; host or cells: rat cerebral cortex, crude synaptic membranes
T2 sequence (P35563 24-483): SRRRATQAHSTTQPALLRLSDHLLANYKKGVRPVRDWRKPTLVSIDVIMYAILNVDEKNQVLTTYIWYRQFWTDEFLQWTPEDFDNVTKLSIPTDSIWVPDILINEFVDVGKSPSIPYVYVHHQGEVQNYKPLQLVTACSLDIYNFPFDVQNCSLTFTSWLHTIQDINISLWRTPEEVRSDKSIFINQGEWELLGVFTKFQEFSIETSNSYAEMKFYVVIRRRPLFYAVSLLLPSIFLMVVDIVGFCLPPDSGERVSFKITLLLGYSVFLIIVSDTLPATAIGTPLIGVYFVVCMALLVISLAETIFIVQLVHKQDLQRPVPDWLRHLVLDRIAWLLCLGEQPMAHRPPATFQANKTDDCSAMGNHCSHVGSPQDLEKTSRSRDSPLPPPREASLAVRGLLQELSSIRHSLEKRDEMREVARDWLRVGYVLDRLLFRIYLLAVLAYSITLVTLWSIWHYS
Protocol: According to the method of Nelson and Thomas [Biochemical Pharmacology, vol. 38, pp. 1693-1695 (1989)], a 5-HT3 receptor binding test was run using, as a tracer ligand, endo-1-methyl-N-(9-methyl-9-azabicyclo[3.3.1]non-3-yl)-1H-indazole-3-carboxamide substituted by tritium (hereinafter to be referred to as [^3H]granisetron). Crude synapse membrane sample was prepared from rat cerebral cortex, suspended in 50 mM HEPES buffer (pH 7.4) and used for testing. Y-36912 having several different concentrations and [^3H]granisetron (final concentration 1.0 nM) were added to this suspension and allowed to react at 25°C. Thirty minutes later, the reaction mixture was filtered by suction with cell harvester. The filter was washed with 50 mM Tris buffer (pH 7.4), and the radioactivity on the filter was counted using liquid scintillation counter or β-plate. The non-specific binding was determined in the presence of 1 µM tropisetron. The concentration of Y-36912 necessary for 50% inhibition (IC50) was determined from graph and converted to binding inhibition constant (Ki value).

dogs = assay: promotion of postprandial gastrointestinal motility in dogs without anesthesia; format: in vivo; conditions: for Difference of motility index (g·min) Colon / Difference of motility index (g·min) Stomach: Mean ± S.E.; for minimal effective dose: Canis lupus familiaris, iv
Protocol: According to the method of Ito et al. [Journal of Smooth Muscle Research, vol. 13, pp. 33-43 (1976)], male and female adult mongrel dogs were subjected to laparotomy under pentobarbital anesthesia, and force transducer was sutured to the serous membrane of various sites of gastrointestinal tract in the direction of circular muscle. After about two weeks' recovery period, postprandial gastrointestinal motility was measured in vigilance. The results are shown in Table 3 as the difference in motility index (g·min) between before and after administration of Y-36912. Y-36912 was administered intravenously.

[2] = evaluation of bioavailability in rats; format: in vivo; conditions: rat, po; female SD rats, 3 mg/kg i.v. and 30 mg/kg p.o., from plasma AUC
Protocol: Female SD rats (4 per group) were administered with 3 mg/kg (i.v.) and 30 mg/kg (p.o.) of Y-36912. The blood was taken with the passage of time, and the concentration of the drug in plasma was measured with high performance liquid chromatography. […] In the formula, AUC means area under the plasma concentration-time curve. (AUC by oral administration)/(AUC by intravenous administration)X(Dose of intravenous administration)/(Dose of oral administration)X 100(%) [formula]

[3] = measurement of absorption by small intestine in rat; format: in vivo; conditions: small intestine loop, 5 mg/kg, male SD rats, intestinal loop, 5 mg/10 ml in 5% glucose, 10 ml/kg, read-out: absorption (absorption ratio by small intestine loop)
Protocol: Male SD rats (3 per group) fasted overnight were subjected to laparotomy under ether anesthesia, and the upper part of small intestine was ligated to form a loop (15-20 cm in length). The drug was dissolved in 5% glucose to the drug concentration of 5 mg/10 ml, and 10 ml/kg thereof was injected into the loop. At 2 hours from the drug injection, the loop was removed, washed with 100 ml of 0.1 N hydrochloric acid-methanol (3:7), and the drug concentration was determined by high performance liquid chromatography. The absorption ratio was calculated according to the following formula. The absorption of Y-36912 was 60.5±13.7 % (Injected amount of drug (mg) - drug concentration in loop (mg/ml) x 100 (ml))/(Injected amount of drug (mg))x 100(%) [formula]

mice = assay: stimulation of defecation in mice; format: in vivo; conditions: for Number (of feces) / Wet weight (of feces): 2 hours, Mean ± S.E.; for Promotion(%) of number of feces / Promotion(%) of wet weight of feces: versus vehicle
Protocol: Male ICR mice were subcutaneously administered with Y-36912 after adaptation to experimental surroundings for thirty minutes. The number and wet weight of feces excreted in 2 hours from immediately after administration were measured.

guinea pig = assay: promotion of transit in large intestine in guinea pig; format: in vivo; conditions: guinea pigs; for Ratio of transit in large intestine (%): Evans blue, 1 hour, Mean ± S.E.; for Promotion (%) of transit in large intestine: versus vehicle
Protocol: Male Hartley guinea pigs were subjected to laparotomy under ether anesthesia, and a silicone tube was inserted into the beginning of ascending colon and fixed there. The other end was passed under the skin to be exposed from the back and sutured. At day 5 postoperation, Y-36912 was administered orally and Evans blue solution was injected into the colon through the silicon tube. One hour later, the large intestine was removed, and the entire length of the large intestine and the length of the transit of the Evans blue solution were measured. Evans blue transit ratio relative to the entire length of the large intestine (100 %) was calculated.

rats = assay: promotion of gastric emptying in rats; format: in vivo; conditions: for Number of pellets (remaining in stomach): female Wistar rats, 1 hour after pellets, Mean ± S.E.; for Promotion (%) of gastric emptying: versus vehicle
Description: Barium pellets (ca. 1 mm diameter) coated with polystyrene was intragastrically administered to female Wistar rats. One hour later, stomach was removed, and the remaining pellets were counted. Y-36912 was orally administered one hour before administration of the pellets.

SD rats [4] = assay: toxicity testing, single oral dose in rats; format: in vivo; conditions: four female SD rats, 750 mg/kg
Protocol: There was no death when four female SD rats were administered orally with Y-36912 at a dose of 750 mg/kg.

SD rats [5] = assay: toxicity testing, repeated administration for 10 days in rats; format: in vivo; conditions: female and male SD rats, repeated 30 mg/kg for 10 days

Sequence of isolated guinea pig ascending colon (O70528 whole entry): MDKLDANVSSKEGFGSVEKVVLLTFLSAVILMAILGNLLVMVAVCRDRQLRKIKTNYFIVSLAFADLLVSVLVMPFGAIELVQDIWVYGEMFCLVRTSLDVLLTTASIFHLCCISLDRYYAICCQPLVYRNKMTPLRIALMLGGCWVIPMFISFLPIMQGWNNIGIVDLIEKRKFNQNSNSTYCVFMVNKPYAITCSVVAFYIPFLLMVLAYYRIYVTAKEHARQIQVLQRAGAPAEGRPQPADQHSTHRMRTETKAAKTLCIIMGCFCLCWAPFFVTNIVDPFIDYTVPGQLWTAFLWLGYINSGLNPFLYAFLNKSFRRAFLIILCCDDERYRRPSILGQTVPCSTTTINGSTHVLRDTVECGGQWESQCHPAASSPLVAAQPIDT
T1 sequence (O70528 whole entry): as above

In the case of `Cn1cc(C(=O)OCC2CCN(CCNS(C)(=O)=O)CC2)c2ccccc21` [GR113808, 1-methyl-1H-indole-3-carboxylic acid · 1-(2-methylsulfonylaminoethyl)-pyperidin-4-ylmethyl ester, reference compound], the “pKB, antagonism of GR113808 to contraction of Y-36912” value ([1]; GR113808 10 nM, 10 minutes pretreatment, agonist Y-36912) is reported as 8.8.
For `COc1cc(N)c(Cl)cc1C(=O)NCC1CCN(CCCS(=O)(=O)Cc2ccccc2)CC1` [Y-36912, 4-amino-5-chloro-2-methoxy-N-((1-(3-benzylsulfonylpropyl)piperidin-4-yl)methyl)benzamide], the Ki (5-HT4 receptor) was 1.5 nM, the IC50 (5-HT3 receptor) was over 1000 nM and the EC50 ([1]; longitudinal muscle, methysergide 1 µM and granisetron 1 µM present, relative to methacholine 30 µM contraction, read-out: Contraction effect on the isolated ascending colon (EC50 value)) was 10.8 nM. The “Difference of motility index (g·min) Colon” value (dogs; 0.01 mg/kg i.v.) was 27.1 ± 6.8 g·min, the “Difference of motility index (g·min) Stomach” value (dogs; 0.01 mg/kg i.v.) was 41.3 ± 35.4 g·min and the “Difference of motility index (g·min) Colon” value (dogs; 0.03 mg/kg i.v.) was 28.3 ± 8.5 g·min. For the same compound, the “Difference of motility index (g·min) Stomach” value (dogs; 0.03 mg/kg i.v.) was 65.1 ± 38.1 g·min, the “Difference of motility index (g·min) Colon” value (dogs; 0.1 mg/kg i.v.) was 58.2 ± 11.9 g·min and the “Difference of motility index (g·min) Stomach” value (dogs; 0.1 mg/kg i.v.) was 60.5 ± 18.1 g·min. For the same compound, the minimal effective dose (dogs; read-out: dose that increased colonic (lower gastrointestinal) motility) was 0.1 mg/kg, the minimal effective dose (dogs; read-out: dose that increased gastric (upper gastrointestinal) motility) was at least 0.03 mg/kg and the bioavailability [2] was 85.2%. For the same compound, the Fa at 2 h [3] was 60.5 ± 13.7%, the “Number (of feces)” value (mice; 0.03 mg/kg s.c) was 5.4 ± 0.7 and the “Wet weight (of feces)” value (mice; 0.03 mg/kg s.c) was 78.2 ± 8.6. For the same compound, the “Promotion(%) of number of feces” value (mice; 0.03 mg/kg s.c) was 59%, the “Promotion(%) of wet weight of feces” value (mice; 0.03 mg/kg s.c) was 38% and the “Number (of feces)” value (mice; 0.1 mg/kg s.c) was 6.5 ± 0.8. The “Wet weight (of feces)” value (mice; 0.1 mg/kg s.c) was 95.7 ± 10.6, the “Promotion(%) of number of feces” value (mice; 0.1 mg/kg s.c) was 91% and the “Promotion(%) of wet weight of feces” value (mice; 0.1 mg/kg s.c) was 69%. For the same compound, the “Number (of feces)” value (mice; 0.3 mg/kg s.c) was 6.2 ± 0.8, the “Wet weight (of feces)” value (mice; 0.3 mg/kg s.c) was 94.7 ± 10.3 and the “Promotion(%) of number of feces” value (mice; 0.3 mg/kg s.c) was 82%. The “Promotion(%) of wet weight of feces” value (mice; 0.3 mg/kg s.c) was 68%, the “Number (of feces)” value (mice; 1 mg/kg s.c) was 5.4 ± 0.5 and the “Wet weight (of feces)” value (mice; 1 mg/kg s.c) was 97.7 ± 12.5. The “Promotion(%) of number of feces” value (mice; 1 mg/kg s.c) was 59%, the “Promotion(%) of wet weight of feces” value (mice; 1 mg/kg s.c) was 73% and the minimal effective dose (mice; Mus musculus, sc, 2 h, s.c., read-out: dose showing significant promotion of defecation) was at least 0.1 mg/kg. The “Ratio of transit in large intestine (%)” value (guinea pig; 0.1 mg/kg p.o.) was 57.0 ± 7.0%, the “Promotion (%) of transit in large intestine” value (“Promotion (%) of transit” for short) (guinea pig; 0.1 mg/kg p.o.) was 9% and the “Ratio of transit in large intestine (%)” value (guinea pig; 0.3 mg/kg p.o.) was 70.9 ± 7.9%. The “Promotion (%) of transit” value (guinea pig; 0.3 mg/kg p.o.) was 35%, the “Ratio of transit in large intestine (%)” value (guinea pig; 1 mg/kg p.o.) was 77.2 ± 6.4 % and the “Promotion (%) of transit” value (guinea pig; 1 mg/kg p.o.) was 47%. For the same compound, the “Ratio of transit in large intestine (%)” value (guinea pig; 3 mg/kg p.o.) was 80.1 ± 5.8 %, the “Promotion (%) of transit” value (guinea pig; 3 mg/kg p.o.) was 53% and the minimal effective dose (guinea pig; Cavia porcellus, po, 1 h, p.o., read-out: dose that significantly accelerated transit in large intestine) was at least 1 mg/kg. For the same compound, the “Number of pellets (remaining in stomach)” value (rats; 0.1 mg/kg p.o.) was 21.1 ± 2.8, the “Promotion (%) of gastric emptying” value (rats; 0.1 mg/kg p.o., rats) was 25% and the “Number of pellets (remaining in stomach)” value (rats; 0.3 mg/kg p.o.) was 18.8 ± 3.0. For the same compound, the “Promotion (%) of gastric emptying” value (rats; 0.3 mg/kg p.o., rats) was 33%, the “Number of pellets (remaining in stomach)” value (rats; 1 mg/kg p.o.) was 19.5 ± 3.1 and the “Promotion (%) of gastric emptying” value (rats; 1 mg/kg p.o., rats) was 31%. For the same compound, the “Number of pellets (remaining in stomach)” value (rats; 3 mg/kg p.o.) was 13.4 ± 1.8, the “Promotion (%) of gastric emptying” value (rats; 3 mg/kg p.o., rats) was 52% and the “effect on gastric emptying” value (rats; doses of 0.3 mg/kg and 3 mg/kg p.o., rats) was “significantly accelerated gastric emptying”. For the same compound, the death (SD rats [4]) was “no death” and the death (SD rats [5]) was “no animal died”.
